≈ marks a conversion by molar mass, not a printed value.

Assay [1] can be described thus: Inhibition of DPPH radical. The following applies: concentration 100 μg/ml (table head prints mg/ml for SM). The method, then:
The free radical scavenging activity of the extract was analyzed by the DPPH (1,1-- diphenyl-- 2--picryl hydrazyl) assay.[10] A total of 2 ml of the test extract, at concentrations ranging from 1 μg/ml to 100 μg/ml each, was mixed with 1 ml of 0.5 mM DPPH (in methanol). The absorbance at 517 nm was taken after 30 min of incubation in the dark at room temperature. The experiment was done in triplicate. The percentage antioxidant activity was calculated as follows: %Antioxidant Activity [AA] = l00 --[ { (Abssample -- Absblank) X 100 }/Abs ml of methanol plus 2.0 ml of the extract was used as the blank while 1.0 ml of the 0.3 mM DPPH solution plus 2.0 ml of methanol was used as the negative control. Ascorbic acid was used as the reference standard.

The nature of assay [2]: Iron-chelating activity (ferrozine). The conditions noted are these: Fe2+-ferrozine, Table 2. The method, then: After 5 min incubation, the reaction was initiated by 1.0 ml of 5.0 mM ferrozine. After 10 min of equilibrium, the absorbance at 562 nm was recorded. The controls contained all reaction reagents except extracts or positive control substance. Three experiments were performed and the average result was adopted. The iron-chelating activities were calculated from the absorbance of the control (Ac) and of the sample (As) using the following equation: Inhibition(%) = Ac −As × 100 Ac

Assay [3] can be described thus: Inhibition of nitric oxide radical (sodium nitroprusside, Griess reaction). The following applies: concentration 50 μg/ml.
Procedure: Nitric oxide generated from sodium nitroprusside in aqueous solution at physiological pH interacts with oxygen to produce nitrite ions, which were measured by the Griess reaction.[1213] The reaction mixture (3 ml) containing sodium nitroprusside (10 Mm) in phosphate buffered saline (PES) and SM and the reference compound in different concentrations (5, 10, 25, 50 and 100 μg) were incubated at 25°C for 150 min. In each 30 min, 0.5 ml of the incubated sample was removed and 0.5 ml of the Griess reagent (1% sulfanilamide, 0.1% naphthyl ethylene diamine dihydrochloride in 2% H3PO4) was added. The absorbance of the chromophore formed was measured at 546 nm. All the tests were performed in triplicate and the results were averaged. BHT was used as the reference compound. All the tests were performed in triplicate and the results were averaged. The percentage decrease in absorbance was calculated.[10] Quercetine was used as the standard.
Assay [4] is described as follows: Inhibition of superoxide anion radical (NBT/NADH/PMS). The conditions noted are these: concentration 50 μg/ml. Here is the method: Measurement of superoxide anion scavenging activity of SM was performed based on the method described by […][11] and slightly modified. About 1 ml of nitroblue tetrazolium (NBT) solution containing 156 μM NBT which is dissolved in 1.0 ml of phosphate buffer (100 mM, pH 7.4), 1 ml of NADH solution containing 468 μM of NADH which is dissolved in 1 ml of phosphate buffer (100 mM, pH 7.4) and 0.1 ml of various concentrations of SM and the reference compounds (5, 10, 25, 50 and 100 μg) were mixed and the reaction started by adding l00 μl of phenazine methosulphate (PMS) solution containing 60 μM of PMS l00 μl of phosphate buffer (100 mM, pH 7.4). The reaction mixture was incubated at 25°C for 5 min and the absorbance at 560 nm was measured against the control samples. All the tests were performed in triplicate and the results were averaged. The percentage decrease in absorbance was calculated.[10] Quercetine was used as the standard.

With `O=C1O[C@H]([C@@H](O)CO)C(O)=C1O` [Ascorbic acid], the figures for the DPPH scavenging in assay [1] and in assay [1] (listed as ascorbic acid) were 97 ± 0.52 % and 97%, respectively. For the same compound, in assay [2], the “IC50 Ion-chelating” value turned out to be 49.3 mg/mL (≈ 280 mM).

`Cc1cc(C(C)(C)C)c(O)c(C(C)(C)C)c1` [BHT]: in assay [2], the “IC50 Ion-chelating” value worked out at 46.6 mg/mL (≈ 211 mM).

Consider `O=c1c(O)c(-c2ccc(O)c(O)c2)oc2cc(O)cc(O)c12` [Quercetin], for which the Nitric oxide scavenging in assay [3] was 93.8 ± 0.98 %. For the same compound, in assay [4], the Superoxide anion scavenging is listed as 90.87 ± 0.43 %.
